For the assay, the target named is Insulin-degrading enzyme (Homo sapiens) (UniProt P14735). The experiment in a line: IDE catalytic activity blockers, fluorogenic substrate – biochemical, kinetic mode, counter-screen for IDE exo-site inhibitor project, dose response (AID 1259348).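 On z-score: purified IDE bound to fluorescein-labelled 6b probe FL-6b at the exo-site; probe displacement lowers polarization so hits show a drop in FP signal.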 The note with it: purified human IDE, fluorogenic decapeptide proteolysis; for z-score: measured here: primary FP probe displacement screen, stronger effect = lower value. In general terms: The purpose of a counterscreen is to sort out artefacts and off-target activity.

Calls of active or inactive are those of the source.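 How the source made its calls: active means any compound with an IC50 of 100 nM or lower; inactive means the rest.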

Data on 41 compounds can be found in PubChem BioAssay AID1259348 (Broad Institute, 2017).

Chain of Insulin-degrading enzyme (Homo sapiens) (P14735 42-1019 limits assumed): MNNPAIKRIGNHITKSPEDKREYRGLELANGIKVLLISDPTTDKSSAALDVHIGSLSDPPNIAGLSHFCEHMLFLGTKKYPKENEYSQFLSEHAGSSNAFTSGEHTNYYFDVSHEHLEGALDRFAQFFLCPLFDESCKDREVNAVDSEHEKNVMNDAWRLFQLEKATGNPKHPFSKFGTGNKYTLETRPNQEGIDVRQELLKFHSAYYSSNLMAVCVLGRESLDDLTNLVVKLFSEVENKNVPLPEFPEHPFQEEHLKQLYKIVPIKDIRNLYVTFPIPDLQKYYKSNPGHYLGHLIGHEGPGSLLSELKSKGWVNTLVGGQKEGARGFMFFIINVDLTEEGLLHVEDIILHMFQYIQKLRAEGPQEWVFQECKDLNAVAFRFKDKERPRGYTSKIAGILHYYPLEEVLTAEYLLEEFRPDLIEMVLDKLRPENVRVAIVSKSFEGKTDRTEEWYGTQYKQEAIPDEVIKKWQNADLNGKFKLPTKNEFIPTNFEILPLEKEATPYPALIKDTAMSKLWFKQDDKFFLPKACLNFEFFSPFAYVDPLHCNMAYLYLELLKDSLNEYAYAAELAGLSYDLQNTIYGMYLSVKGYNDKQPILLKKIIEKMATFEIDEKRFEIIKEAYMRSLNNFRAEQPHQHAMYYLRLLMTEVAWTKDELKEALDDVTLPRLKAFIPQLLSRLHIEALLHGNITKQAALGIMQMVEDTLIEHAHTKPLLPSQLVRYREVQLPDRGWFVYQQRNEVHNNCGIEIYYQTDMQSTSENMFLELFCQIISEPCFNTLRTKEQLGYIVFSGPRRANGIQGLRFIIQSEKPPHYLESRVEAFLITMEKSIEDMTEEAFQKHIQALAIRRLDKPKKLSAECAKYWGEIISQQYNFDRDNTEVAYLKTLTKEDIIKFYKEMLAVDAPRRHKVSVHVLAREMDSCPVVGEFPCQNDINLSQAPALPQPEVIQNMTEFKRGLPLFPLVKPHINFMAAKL

The IC50 is the concentration that inhibits the measured activity by half. In the case of `Cc1cccc(-c2ccc([C@@H]3[C@@H](CO)N4CCCCN(CCC(F)(F)F)C[C@@H]34)cc2)c1`, the IC50 was 71.5 µM and the z-score was -0.68.
Turning to `Cc1cccc(-c2ccc([C@@H]3[C@H]4CN(C(=O)c5ccncc5)CCCCN4[C@H]3CO)cc2)c1`, the IC50 was 4.9 µM and the z-score was -17.
Turning to `Cc1ccccc1-c1ccc([C@@H]2[C@H](CO)N3CCCCN(C(=O)NC4CCCC4)C[C@@H]23)cc1`, the IC50 was 1.55 µM and the z-score was -19.
For `Cc1ccccc1-c1ccc([C@@H]2[C@@H](CO)N3C(=O)CN(S(C)(=O)=O)C[C@@H]23)cc1`, in that order: 1.8 µM and -12.7.
On the same counts, the results for `CCS(=O)(=O)N1CCCCN2[C@H](CO)[C@@H](c3ccc(-c4ccccc4C)cc3)[C@@H]2C1` are 0.41 µM and -18.3.
Regarding `Cc1ccccc1-c1ccc([C@H]2[C@H](CO)N3C(=O)CN(C(=O)Cc4ccccn4)C[C@@H]23)cc1`, the IC50 is 4.4 µM and the z-score was -13.9.
On to `CO[C@H]1CN(C)C(=O)c2cc(NC(=O)c3ccc(Oc4ccccc4)cc3)ccc2OC[C@H](C)NC[C@H]1C`, for which the IC50 is 2.8 µM and the z-score is -14.2.
On the same counts, the results for `COc1cccc(C#Cc2ccc([C@@H]3[C@H](CO)N4C(=O)CN(C(C)=O)C[C@@H]34)cc2)c1` are 3.7 µM and -15.3.
`Cc1ccccc1-c1ccc([C@H]2[C@@H](CO)N3CCCCN(C(=O)Nc4cccc(F)c4)C[C@@H]23)cc1`: the IC50 is 3.8 µM and the z-score was -4.36.
With `COc1ccccc1-c1ccc(C2[C@@H]3CN(C(=O)c4cccnc4)C[C@H]2N3)cc1` (some centres not stated), the IC50 is 7.1 µM and the z-score was -13.8.
For the compound `Cc1ccccc1-c1ccc([C@H]2[C@@H](CO)N3CCCCN(S(=O)(=O)c4ccc(F)cc4)C[C@@H]23)cc1`, the IC50 is 85 µM and the z-score is 3.66.
For `Cc1ccccc1-c1ccc([C@H]2[C@H](CO)N3C(=O)CN(C(=O)c4ccncc4)C[C@@H]23)cc1`, the IC50 was 4.5 µM and the z-score was -7.39.
On the same counts, the results for `Cc1ccccc1-c1ccc([C@H]2[C@@H](CO)N3C(=O)CN(C(=O)Cc4ccccn4)C[C@@H]23)cc1` are 3.2 µM and -17.3.
On the same counts, the results for `Cc1cccc(-c2ccc([C@H]3[C@H](CO)N4C(=O)CN(C(=O)NC5CCCCC5)C[C@@H]34)cc2)c1` are 3.2 µM and -16.3.
On the same counts, the results for `Cc1ccccc1-c1ccc(C2[C@@H]3CN(S(=O)(=O)c4cn(C)cn4)C[C@H]2N3)cc1` (some centres not stated) are 3.9 µM and -16.6.
`O=C(NC1CCCC1)N1CCCCN2[C@H](C1)[C@H](c1ccc(/C=C/c3ccccc3)cc1)[C@@H]2CO`: the IC50 was 11.5 µM and the z-score was -13.2.
As to `Cc1ccccc1-c1ccc([C@@H]2[C@H]3CN(C(=O)Cc4ccccn4)CC(=O)N3[C@H]2CO)cc1`, the IC50 is 2 µM and the z-score is -17.7.
On the same counts, the results for `Cc1ccccc1-c1ccc([C@H]2[C@@H](CO)N3CCCCN(C(=O)Nc4ccccc4)C[C@@H]23)cc1` are 2.9 µM and -1.37.
Take `Cc1cccc(-c2ccc([C@@H]3[C@@H](CO)N4CCCCN(S(=O)(=O)c5cccs5)C[C@@H]34)cc2)c1`: the IC50 is 0.8 µM and the z-score is -3.77.
For `CCCNC(=O)N1CC(=O)N2[C@@H](CO)[C@H](c3ccc(-c4cccc(C)c4)cc3)[C@@H]2C1`, in that order: 2.4 µM and -15.8.
As for `COc1ccccc1C#Cc1ccc([C@H]2[C@H](CO)N3CCCCN(C(=O)C4CCC4)C[C@@H]23)cc1`, the IC50 is 2.7 µM and the z-score was -12.3.
On the same counts, the results for `Cc1ccccc1-c1ccc([C@H]2[C@@H](CO)N3CCCCN(C(=O)NC4CCCC4)C[C@H]23)cc1` are 0.88 µM and -17.3.
Regarding `CCC(=O)N1[C@H](CO)[C@H](c2ccc(-c3ccccc3OC)cc2)[C@@H]1CNC(C)=O`, the half-maximal inhibitory concentration (IC50) is 5.8 µM and the z-score was -15.
For `Cc1cccc(-c2ccc([C@@H]3[C@H]4CN(C(=O)c5cccnc5)CC(=O)N4[C@H]3CO)cc2)c1`, in that order: 4.2 µM and -17.7.
For the compound `O=C(NC1CCCC1)N1CCCCN2[C@@H](CO)[C@H](c3ccc(/C=C/c4ccccc4)cc3)[C@@H]2C1`, the IC50 is 0.88 µM and the z-score is -14.8.
As for `Cc1cccc(-c2ccc([C@@H]3[C@@H](CO)N4CCCCN(C(=O)c5ccncc5)C[C@@H]34)cc2)c1`, the IC50 is 16.5 µM and the z-score is -3.14.
Turning to `COc1ccc(NC(=O)N2CCCCN3[C@H](CO)[C@H](c4ccc(-c5ccccc5C)cc4)[C@@H]3C2)cc1`, the IC50 is 3.4 µM and the z-score is -0.82.
On the same counts, the results for `Cc1cccc(-c2ccc([C@@H]3[C@@H](CO)N4CCCCN(Cc5cncnc5)C[C@@H]34)cc2)c1` are 11.9 µM and -6.65.
On the same counts, the results for `Cc1ccccc1-c1ccc([C@H]2[C@@H](CO)N3CCCCN(C(=O)Cc4ccccn4)C[C@@H]23)cc1` are 50 µM and -5.7.
On the same counts, the results for `Cc1ccccc1-c1ccc([C@H]2[C@H](CO)N3C(=O)CN(C(=O)c4ccc(F)cc4)C[C@@H]23)cc1` are 3 µM and -16.5.
Turning to `Cc1ccccc1-c1ccc([C@H]2[C@@H](CO)N3C(=O)CN(C(=O)c4cccnc4)C[C@H]23)cc1`, the concentration for half-maximal inhibition (IC50) was 2 µM and the z-score is -17.2.
On the same counts, the results for `CO[C@H]1CN(C)C(=O)c2cc(NC(=O)c3ccc(Oc4ccccc4)cc3)ccc2OC[C@@H](C)NC[C@@H]1C` are 2.9 µM and -13.2.
On the same counts, the results for `Cc1ccccc1-c1ccc([C@@H]2[C@@H](CO)N3C(=O)CN(C(=O)Cc4ccccn4)C[C@@H]23)cc1` are 2.7 µM and -19.9.
On the same counts, the results for `Cc1ccccc1-c1ccc([C@@H]2[C@@H](CO)N3CCCCN(C(=O)Cc4ccccn4)C[C@@H]23)cc1` are 11.5 µM and -9.54.
With `Cc1cccc(-c2ccc([C@@H]3[C@@H](CO)N4CCCCN(C(=O)NC(C)C)C[C@@H]34)cc2)c1`, the IC50 was 6.2 µM and the z-score is -5.51.
`Cc1cccc(-c2ccc([C@H]3[C@@H](CO)N4CCCCN(C(=O)c5ccncc5)C[C@H]34)cc2)c1`: the IC50 is 3 µM and the z-score is -18.3.
On to `Cc1cccc(-c2ccc([C@@H]3[C@H](CO)N4CCCCN(S(=O)(=O)c5cn(C)cn5)C[C@@H]34)cc2)c1`, for which the IC50 was 2.1 µM and the z-score was -19.5.
For `Cc1ccccc1-c1ccc([C@H]2[C@@H](CO)N3CCCCN(C(=O)Nc4ccc(F)cc4)C[C@@H]23)cc1`, in that order: 3 µM and -1.63.
Consider `OC[C@H]1[C@@H](c2ccc(C#Cc3ccccc3F)cc2)[C@@H]2CN(Cc3cncnc3)CCCCN12`, for which the IC50 is 5.2 µM and the z-score is -15.1.
On to `OC[C@H]1[C@@H](c2ccc(C#Cc3ccccc3)cc2)[C@@H]2CN(Cc3cncnc3)CCCCN12`, for which the IC50 was 4.3 µM and the z-score was -16.2.
With `COc1ccccc1C#Cc1ccc([C@H]2[C@H]3CN(C(=O)C4CCC4)CCCCN3[C@H]2CO)cc1`, the IC50 is > 100 µM (inactive) and the z-score is -17.5.
